Source: PubChem BioAssay AID1259411 (Chemical Carcinogenesis Research Information System (CCRIS), 2018)
Activity calls are given as the source filed them. The rule behind the calls is not given here.

System: rodent carcinogenicity bioassays, tumor incidence
Assay: CCRIS carcinogenicity studies
Procedure, shortened: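 Archive of carcinogenicity, mutagenicity, tumor promotion and tumor inhibition results drawn from journals, NCI reports and other sources, expert-reviewed; covers 1985-2011 and is no longer updated.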

SMILES: C1CO1
- carcinogen call (Species: MOUSE, Strain/Sex: B6C3F1/FEMALE, Route: INHALATION, Dose: 0, 50, 100 PPM 6 HR/D 5 D/WK FOR 102 WK (STUDY DURATION: 105 WK), Dose: 0, 50, 100 PPM 6 HR/D 5 D/WK FOR 102 WK (STUDY DURATION: 105 WK), Tumor Site: Type of Lesion: LUNG: ALVEOLAR/BRONCHIOLAR ADENOMA, LUNG: ALVEOLAR/BRONCHIOLAR CARCINOMA, LUNG: ALVEOLAR/BRONCHIOLAR ADENOMA OR CARCINOM, Tumor Site: Type of Lesion: LUNG: ALVEOLAR/BRONCHIOLAR ADENOMA, LUNG: ALVEOLAR/BRONCHIOLAR CARCINOMA, LUNG: ALVEOLAR/BRONCHIOLAR ADENOMA OR CARCINOM): active; positive
- carcinogen call (Species: MOUSE, Strain/Sex: B6C3F1/MALE, Route: INHALATION, Dose: 0, 50, 100 PPM 6 HR/D 5 D/WK FOR 102 WK (STUDY DURATION: 105 WK), Dose: 0, 50, 100 PPM 6 HR/D 5 D/WK FOR 102 WK (STUDY DURATION: 105 WK), Tumor Site: Type of Lesion: LUNG: ALVEOLAR/BRONCHIOLAR CARCINOMA, LUNG: ALVEOLAR/BRONCHIOLAR ADENOMA OR CARCINOMA, HARDERIAN GLAND: PAPILLARY CYSTAD, Tumor Site: Type of Lesion: LUNG: ALVEOLAR/BRONCHIOLAR CARCINOMA, LUNG: ALVEOLAR/BRONCHIOLAR ADENOMA OR CARCINOMA, HARDERIAN GLAND: PAPILLARY CYSTAD): active; positive
- carcinogen call (Species: MOUSE, Strain/Sex: NMRI/FEMALE, Route: SUBCUTANEOUS, Dose: 0, 0.1, 0.3, 1 MG/MOUSE IN TRICAPRYLIN 1/WK FOR 95 WK (STUDY DURATION: 110 WK), Dose: 0, 0.1, 0.3, 1 MG/MOUSE IN TRICAPRYLIN 1/WK FOR 95 WK (STUDY DURATION: 110 WK), Tumor Site: Type of Lesion: INJECTION SITE: TUMOR): active; positive
- carcinogen call (Species: RAT, Strain/Sex: F344/FEMALE, Route: INHALATION, Dose: 0, 10, 33, 100 PPM 6 HR/D 5 D/WK FOR STUDY DURATION (STUDY DURATION: 2 YR), Dose: 0, 10, 33, 100 PPM 6 HR/D 5 D/WK FOR STUDY DURATION (STUDY DURATION: 2 YR), Tumor Site: Type of Lesion: BRAIN: ASTROCYTOMA, MIXED GLIOMA, OLIGODENDROGLIOMA, MALIGNANT RETICULOSIS): active; positive
- carcinogen call (Species: RAT, Strain/Sex: F344/FEMALE, Route: INHALATION, Dose: 0, 10, 33, 100 PPM 6 HR/D 5 D/WK FOR UP TO 2 YR (STUDY DURATION: 24 MO), Dose: 0, 10, 33, 100 PPM 6 HR/D 5 D/WK FOR UP TO 2 YR (STUDY DURATION: 24 MO)): inactive; negative
- carcinogen call (Species: RAT, Strain/Sex: F344/MALE, Route: INHALATION, Dose: 0, 10, 33, 100 PPM 6 HR/D 5 D/WK FOR STUDY DURATION (STUDY DURATION: 2 YR), Dose: 0, 10, 33, 100 PPM 6 HR/D 5 D/WK FOR STUDY DURATION (STUDY DURATION: 2 YR), Tumor Site: Type of Lesion: BRAIN: GRANULAR CELL TUMOR, ASTROCYTOMA, MIXED GLIOMA, OLIGODENDROGLIOMA, MALIGNANT RETICULOSIS): active; positive
- carcinogen call (Species: RAT, Strain/Sex: F344/MALE, Route: INHALATION, Dose: 0, 10, 33, 100 PPM 6 HR/D 5 D/WK FOR UP TO 2 YR (STUDY DURATION: 24 MO), Dose: 0, 10, 33, 100 PPM 6 HR/D 5 D/WK FOR UP TO 2 YR (STUDY DURATION: 24 MO), Tumor Site: Type of Lesion: BRAIN: GRANULAR CELL TUMOR OR GLIAL CELL TUMOR OR ASTROCYTOMA OR MALIGNANT RETICULOSIS): active; positive
- carcinogen call (Species: RAT, Strain/Sex: F344/MALE, Route: INHALATION, Dose: 0, 50, 100 PPM 7 HR/D 5 D/WK FOR 24 MO (STUDY DURATION: LIFETIME), Dose: 0, 50, 100 PPM 7 HR/D 5 D/WK FOR 24 MO (STUDY DURATION: LIFETIME), Tumor Site: Type of Lesion: HEMATOPOIETIC SYSTEM: MONONUCLEAR CELL LEUKEMIA, PERITONEUM: MESOTHELIOMA, BRAIN: GLIOMA, Tumor Site: Type of Lesion: HEMATOPOIETIC SYSTEM: MONONUCLEAR CELL LEUKEMIA, PERITONEUM: MESOTHELIOMA, BRAIN: GLIOMA): active; positive
- carcinogen call (Species: RAT, Strain/Sex: F344/MALE, Route: INHALATION, Dose: 0, 50, 100 PPM 7 HR/D 5 D/WK FOR 104 WK (STUDY DURATION: 2 YR), Dose: 0, 50, 100 PPM 7 HR/D 5 D/WK FOR 104 WK (STUDY DURATION: 2 YR), Tumor Site: Type of Lesion: BRAIN: GLIOMA (MIXED CELL), PERITONEUM: MESOTHELIOMA, PITUITARY GLAND: ADENOMA, SPLEEN: MONONUCLEAR CELL LEUKEMIA, Tumor Site: Type of Lesion: BRAIN: GLIOMA (MIXED CELL), PERITONEUM: MESOTHELIOMA, PITUITARY GLAND: ADENOMA, SPLEEN: MONONUCLEAR CELL LEUKEMIA): active; positive
- carcinogen call (Species: RAT, Strain/Sex: SPRAGUE-DAWLEY/FEMALE, Route: GAVAGE, Dose: 7.5, 30 MG/KG IN SALAD OIL 2/WK FOR UP TO 150 WK, Tumor Site: Type of Lesion: FORESTOMACH: SQUAMOUS CELL CARCINOMA): active; positive

SMILES: COc1cc(S(=O)(=O)O)c(C)cc1N=Nc1c(O)ccc2cc(S(=O)(=O)O)ccc12
- carcinogen call (Species: MOUSE, Strain/Sex: CD-1/FEMALE, Route: ORAL, Dose: 0, 0.37, 1.39, 5.19% IN DIET FOR LIFE TO OFFSPRING OF ANIMALS ADMINISTERED THE SAME DOSES DURING BREEDING, GESTATION AND, Dose: 0, 0.37, 1.39, 5.19% IN DIET FOR LIFE TO OFFSPRING OF ANIMALS ADMINISTERED THE SAME DOSES DURING BREEDING, GESTATION AND): inactive; negative
- carcinogen call (Species: MOUSE, Strain/Sex: CD-1/MALE, Route: ORAL, Dose: 0, 0.37, 1.39, 5.19% IN DIET FOR LIFE TO OFFSPRING OF ANIMALS ADMINISTERED THE SAME DOSES DURING BREEDING, GESTATION AND, Dose: 0, 0.37, 1.39, 5.19% IN DIET FOR LIFE TO OFFSPRING OF ANIMALS ADMINISTERED THE SAME DOSES DURING BREEDING, GESTATION AND): inactive; negative
- carcinogen call (Species: MOUSE, Strain/Sex: HAM/ICR/FEMALE, Route: ORAL, Dose: 0, 0.37, 1.39, 5.19% IN DIET FOR LIFE TO OFFSPRING OF ANIMALS ADMINISTERED THE SAME DOSES DURING BREEDING, GESTATION AND, Dose: 0, 0.37, 1.39, 5.19% IN DIET FOR LIFE TO OFFSPRING OF ANIMALS ADMINISTERED THE SAME DOSES DURING BREEDING, GESTATION AND): inactive; negative
- carcinogen call (Species: MOUSE, Strain/Sex: HAM/ICR/MALE, Route: ORAL, Dose: 0, 0.37, 1.39, 5.19% IN DIET FOR LIFE TO OFFSPRING OF ANIMALS ADMINISTERED THE SAME DOSES DURING BREEDING, GESTATION AND, Dose: 0, 0.37, 1.39, 5.19% IN DIET FOR LIFE TO OFFSPRING OF ANIMALS ADMINISTERED THE SAME DOSES DURING BREEDING, GESTATION AND): inactive; negative
- carcinogen call (Species: RAT, Strain/Sex: SPRAGUE-DAWLEY/FEMALE, Route: ORAL, Dose: 0, 0.37, 1.39, 5.19% OF DIET BEGINNING WITH PARENTAL GENERATION AND CONTINUING WITH THE OFFSPRING FOLLOWING WEANING (STU, Dose: 0, 0.37, 1.39, 5.19% OF DIET BEGINNING WITH PARENTAL GENERATION AND CONTINUING WITH THE OFFSPRING FOLLOWING WEANING (STU): inactive; negative
- carcinogen call (Species: RAT, Strain/Sex: SPRAGUE-DAWLEY/MALE, Route: ORAL, Dose: 0, 0.37, 1.39, 5.19% OF DIET BEGINNING WITH PARENTAL GENERATION AND CONTINUING WITH THE PUPS FOLLOWING WEANING (STUDY DU, Dose: 0, 0.37, 1.39, 5.19% OF DIET BEGINNING WITH PARENTAL GENERATION AND CONTINUING WITH THE PUPS FOLLOWING WEANING (STUDY DU): inactive; negative

SMILES: O=[N+]([O-])c1cc(O)c2ccc3cccc4ccc1c2c34
- carcinogen call (Species: RAT, Strain/Sex: STRAIN-CD/FEMALE, Route: SUBCUTANEOUS, Dose: 0, 63 UMOL (TOTAL DOSE) ADMINISTERED OVER 8 WK BEGINNING WITHIN 24 HR OF BIRTH (STUDY DURATION: 86 WK)): inactive; negative

SMILES: Oc1cccc2cccnc12
- carcinogen call (Species: MOUSE, Strain/Sex: B6C3F1/FEMALE, Route: ORAL, Dose: 0, 1500, 3000 PPM IN DIET FOR 103 WK, Dose: 0, 1500, 3000 PPM IN DIET FOR 103 WK): inactive; negative
- carcinogen call (Species: MOUSE, Strain/Sex: B6C3F1/MALE, Route: ORAL, Dose: 0, 1500, 3000 PPM IN DIET FOR 103 WK, Dose: 0, 1500, 3000 PPM IN DIET FOR 103 WK): inactive; negative
- carcinogen call (Species: RAT, Strain/Sex: F344/FEMALE, Route: ORAL, Dose: 0, 1500, 3000 PPM IN DIET FOR 103 WK, Dose: 0, 1500, 3000 PPM IN DIET FOR 103 WK): inactive; negative
- carcinogen call (Species: RAT, Strain/Sex: F344/MALE,FEMALE, Route: ORAL, Dose: 0.1% IN DIET FOR 2 YR): inactive; negative
- carcinogen call (Species: RAT, Strain/Sex: F344/MALE, Route: ORAL, Dose: 0, 1500, 3000 PPM IN DIET FOR 103 WK, Dose: 0, 1500, 3000 PPM IN DIET FOR 103 WK): inactive; negative
